According to patent publication US7205332B2, “Deoxoartemisinin analogs, process for their preparation, and anticancer agent comprising them” (Industry-Academic Cooperation Foundation, Yonsei University, priority 2003, dated 2007):
Converted amounts (≈) assume the structure as drawn. Where two headings read alike, the source gives them in different places.

Columns and labels:
[1] = system: P388: mouse fibroblast leukemia cell; assay: micro-culture tetrazolium assay, in vitro cytotoxicity on P388; type: cell-based; conditions: for anticancer activity, fold higher than that of mitomycin: versus mitomycin
EL4: mouse thymoma cell = assay: micro-culture tetrazolium assay, in vitro cytotoxicity on EL4; type: cell-based; conditions: for IC50: read-out: In vitro cytotoxicities (IC50) EL4
[2] = system: Bewo: human choriocarcinoma cell; assay: micro-culture tetrazolium assay, in vitro cytotoxicity on Bewo; type: cell-based; conditions: for IC50: read-out: In vitro cytotoxicities (IC50) Bewo
[3] = system: HT-29: human colorectal adenocarcinoma cell; assay: micro-culture tetrazolium assay, in vitro cytotoxicity on HT-29; type: cell-based; conditions: for IC50: read-out: In vitro cytotoxicities (IC50) HT-29
Description: (§1) The anticancer activities of the deoxoartemisinin dimer and trimer of the present invention were measured by a known micro-culture tetrazolium assay (see Carmichel, J.; DeGraff, W. G; Gazdar, A. F.; Minna, J. D.; Mitchell, J. B., Evaluation of a Tetrazolium-based Semiautomated Colorimetric Assay: Assessment of Chemosensitivity testing, Cancer Res., 1987, 47, 936–42).

[4] = system: MCF7: human breast carcinoma cell; assay: micro-culture tetrazolium assay, in vitro cytotoxicity on MCF7; type: cell-based
[5] = system: SKOV3: human ovarian carcinoma cell; assay: micro-culture tetrazolium assay, in vitro cytotoxicity on SKOV3; type: cell-based; conditions: SK-OV-3, read-out: In vitro cytotoxicities (IC50) SKOV3
Description: as §1

water solubility = type: physicochemical
[6] = system: PANC-1: human pancreatic cancer cell; assay: micro-culture tetrazolium assay, in vitro cytotoxicity on PANC-1; type: cell-based; conditions: for IC50: PANC-1 human pancreatic cancer cell, read-out: In vitro cytotoxicities (IC50) PANC-1
Description: as §1

[7] = system: A549: human lung cancer cell; assay: micro-culture tetrazolium assay, in vitro cytotoxicity on A549; type: cell-based
[8] = P388 mouse fibroblast leukemia cell
[9] = Bewo human choriocarcinoma cell
[10] = MCF7 human breast carcinoma cell
[11] = P388 mouse fibroblast leukemia cell, read-out: In vitro cytotoxicities (IC50) P388
[12] = MCF7 human breast carcinoma cell, read-out: In vitro cytotoxicities (IC50) MCF7

Molecule: 12-(4′-aminobutyl)deoxoartemisinin dimer [Compound (IVc′)]
- In vitro cytotoxicities (IC50) P388 [1, 8]: >20 µg/mL
- In vitro cytotoxicities (IC50) EL4 (EL4: mouse thymoma cell; EL4 mouse thymoma cell): >20 µg/mL
- In vitro cytotoxicities (IC50) Bewo [2, 9]: >20 µg/mL
- In vitro cytotoxicities (IC50) HT-29 [3]: 20.20 µg/mL
- In vitro cytotoxicities (IC50) MCF7 [4, 10]: >20 µg/mL

Molecule: COc1cccc2c1C(=O)c1c(O)c3c(c(O)c1C2=O)C[C@@](O)(C(=O)CO)C[C@@H]3O[C@H]1C[C@H](N)[C@H](O)[C@H](C)O1 [Adriamycin, reference compound]
- IC50 [1, 11]: 0.39 µg/mL (≈ 0.718 µM)
- IC50 (EL4: mouse thymoma cell; EL4 mouse thymoma cell): 0.67 µg/mL (≈ 1.23 µM)
- IC50 [2, 9]: 6.24 µg/mL (≈ 11.5 µM)
- IC50 [3]: 0.1 µg/mL (≈ 0.184 µM)
- IC50 [4, 12]: 0.12 µg/mL (≈ 0.221 µM)

Molecule: C[C@H]1[C@@H](CCSCC[C@H]2O[C@@H]3O[C@@]4(C)CC[C@H]5[C@H](C)CC[C@@H]([C@H]2C)[C@@]35OO4)O[C@@H]2O[C@@]3(C)CC[C@H]4[C@H](C)CC[C@@H]1[C@@]24OO3 [Compound (IVa1), 12-(2′-ethylsulfide)deoxoartemisinin dimer]
- anticancer activity, fold higher than that of mitomycin ([1]; P388): at least 4 fold
- IC50 [1, 11]: 0.4 µg/mL (≈ 0.642 µM)
- IC50 (EL4: mouse thymoma cell; EL4 mouse thymoma cell): 0.23 µg/mL (≈ 0.369 µM)
- IC50 [2, 9]: 14.2 µg/mL (≈ 22.8 µM)
- IC50 [3]: 0.24 µg/mL (≈ 0.385 µM)
- IC50 [4, 12]: 0.017 µg/mL (≈ 0.0273 µM)

Molecule: CC1CCC2C(C)C(CCS(=O)(=O)CCC3OC4OC5(C)CCC6C(C)CCC(C3C)C46OO5)OC3OC4(C)CCC1C32OO4 (centres unmarked) [Compound (IVa2), 12-(2′-sulfonylethyl)deoxoartemisinin dimer]
- In vitro cytotoxicities (IC50) P388 [1, 8]: 5.60 µg/mL
- In vitro cytotoxicities (IC50) EL4 (EL4: mouse thymoma cell; EL4 mouse thymoma cell): 0.54 µg/mL
- In vitro cytotoxicities (IC50) Bewo [2, 9]: 1.04 µg/mL
- anticancer activity, fold higher than that of taxol and adriamycin ([2]; Bewo, versus taxol and adriamycin): at least 6 fold
- In vitro cytotoxicities (IC50) HT-29 [3]: 0.38 µg/mL
- In vitro cytotoxicities (IC50) MCF7 [4, 10]: 0.025 µg/mL

Molecule: C[C@H]1[C@@H](CCNC(=O)CC[C@H]2O[C@@H]3O[C@@]4(C)CC[C@H]5[C@H](C)CC[C@@H]([C@H]2C)[C@@]35OO4)O[C@@H]2O[C@@]3(C)CC[C@H]4[C@H](C)CC[C@@H]1[C@@]24OO3 [Compound (IVc), 12-(2′-amidethyl)deoxoartemisinin Dimer]
- IC50 [1, 11]: 10.4 µg/mL (≈ 16.4 µM)
- IC50 (EL4: mouse thymoma cell; EL4 mouse thymoma cell): 6.29 µg/mL (≈ 9.92 µM)
- IC50 [2, 9]: 7.5 µg/mL (≈ 11.8 µM)
- IC50 [3]: 0.69 µg/mL (≈ 1.09 µM)
- IC50 [5]: 12.6 µg/mL (≈ 19.9 µM)
- anticancer activity, fold higher than that of adriamycin ([4]; MCF7, versus adriamycin): at least 24 fold
- anticancer activity, fold higher than that of mitomycin ([4]; MCF7, versus mitomycin): at least 200 fold
- IC50 [4, 12]: 0.005 µg/mL (≈ 0.00789 µM)

Molecule: C[C@H]1[C@@H](CCNC(=O)CC[C@H](N)C(=O)NCC[C@H]2O[C@@H]3O[C@@]4(C)CC[C@H]5[C@H](C)CC[C@@H]([C@H]2C)[C@@]35OO4)O[C@@H]2O[C@@]3(C)CC[C@H]4[C@H](C)CC[C@@H]1[C@@]24OO3 [Compound (IVd), 12-[2′-(N-glutamic)-α,β-amide]deoxoartemisinin dimer]
- IC50 [1, 11]: 15.6 µg/mL (≈ 21.3 µM)
- IC50 (EL4: mouse thymoma cell; EL4 mouse thymoma cell): 16.5 µg/mL (≈ 22.5 µM)
- IC50 [2, 9]: > 20 µg/mL
- IC50 [3]: 6.5 µg/mL (≈ 8.86 µM)
- IC50 [4, 12]: 15.3 µg/mL (≈ 20.8 µM)
- water solubility relative to artemisinin (water solubility; compared with artemisinin): five times more water soluble
- solubility (water solubility; water): 5210 µg/mL (≈ 7100 µM)

Molecule: C[C@H]1[C@@H](CCNC(=O)CC[C@H](NC(=O)CC[C@H]2O[C@@H]3O[C@]4(C)CC[C@H]5[C@H](C)CC[C@@H]([C@H]2C)[C@@]35OO4)C(=O)NCC[C@H]2O[C@@H]3O[C@]4(C)CC[C@H]5[C@H](C)CC[C@@H]([C@H]2C)[C@@]35OO4)O[C@@H]2O[C@]3(C)CC[C@H]4[C@H](C)CC[C@@H]1[C@@]24OO3 [Compound (IVe), deoxoartemisinin trimer]
- anticancer activity, fold higher than that of adriamycin ([1]; P388, versus adriamycin): at least 3 fold
- anticancer activity, fold higher than that of mitomycin ([1]; P388): at least 12 fold
- anticancer activity, fold higher than that of taxol ([1]; P388, versus taxol): at least 20 fold
- IC50 [1, 11]: 0.12 µg/mL (≈ 0.114 µM)
- IC50 (EL4: mouse thymoma cell; EL4 mouse thymoma cell): 1.07 µg/mL (≈ 1.01 µM)
- IC50 [2, 9]: 18.3 µg/mL (≈ 17.3 µM)
- IC50 [3]: 0.09 µg/mL (≈ 0.0852 µM)
- IC50 [6]: 2.69 µg/mL (≈ 2.55 µM)
- anticancer activity, fold higher than that of taxol ([6]; human pancreatic cancer cell, versus taxol): at least 2 fold
- IC50 [5]: 11.2 µg/mL (≈ 10.6 µM)
- IC50 [4, 12]: 0.017 µg/mL (≈ 0.0161 µM)
- IC50 ([7]; A549 human lung cancer cell, read-out: In vitro cytotoxicities (IC50) A549): 2.45 µg/mL (≈ 2.32 µM)
- melting point: 138 °C

Molecule: CO[C@@]12[C@H](COC(N)=O)C3=C(C(=O)C(C)=C(N)C3=O)N1C[C@@H]1N[C@@H]12 [Mitomycin, reference compound]
- IC50 ([1]; Mus musculus, P388, read-out: In vitro cytotoxicities (IC50) P388): 1.5 µg/mL (≈ 4.49 µM)
- IC50 (EL4: mouse thymoma cell; Mus musculus): 3.94 µg/mL (≈ 11.8 µM)
- IC50 ([2]; Homo sapiens, BeWo): 0.85 µg/mL (≈ 2.54 µM)
- IC50 [3]: 0.02 µg/mL (≈ 0.0598 µM)
- IC50 ([4]; Homo sapiens, MCF7, read-out: In vitro cytotoxicities (IC50) MCF7): 0.93 µg/mL (≈ 2.78 µM)
- IC50 ([7]; Homo sapiens, A549, read-out: In vitro cytotoxicities (IC50) A549): 1.85 µg/mL (≈ 5.53 µM)

Molecule: CC(=O)O[C@H]1C(=O)[C@@]2(C)[C@H]([C@H](OC(=O)c3ccccc3)[C@]3(O)C[C@H](OC(=O)[C@H](O)[C@@H](NC(=O)c4ccccc4)c4ccccc4)C(C)=C1C3(C)C)[C@]1(OC(C)=O)CO[C@@H]1C[C@@H]2O [Taxol, reference compound]
- IC50 [1, 11]: 2.27 µg/mL (≈ 2.66 µM)
- IC50 (EL4: mouse thymoma cell; EL4 mouse thymoma cell): 1.34 µg/mL (≈ 1.57 µM)
- IC50 [2, 9]: 7.39 µg/mL (≈ 8.65 µM)
- IC50 [3]: 0.01 µg/mL (≈ 0.0117 µM)
- IC50 [6]: 5.76 µg/mL (≈ 6.75 µM)
- IC50 [5]: 12.3 µg/mL (≈ 14.4 µM)
